From paper PMC5818264 (Journal of the American Chemical Society, 2017)

Key:
[1] = target: LeuT (leucine transporter) (Aquifex aeolicus, UniProt O67854); assay: scintillation proximity assay; type: binding; settings: labelled compound; DDM or NBMs at CMC + […] or […] wt %; room temperature
[2] = target: T1, MelBSt (melibiose permease of Salmonella typhimurium) (Salmonella enterica, UniProt P30878); assay: reversal of Trp to D^2G FRET in detergent extract of membrane vesicles; type: binding; settings: saturating melibiose; […] D^2G; DDM or D-NBM-C11; competitive
T1 sequence (P30878 whole entry): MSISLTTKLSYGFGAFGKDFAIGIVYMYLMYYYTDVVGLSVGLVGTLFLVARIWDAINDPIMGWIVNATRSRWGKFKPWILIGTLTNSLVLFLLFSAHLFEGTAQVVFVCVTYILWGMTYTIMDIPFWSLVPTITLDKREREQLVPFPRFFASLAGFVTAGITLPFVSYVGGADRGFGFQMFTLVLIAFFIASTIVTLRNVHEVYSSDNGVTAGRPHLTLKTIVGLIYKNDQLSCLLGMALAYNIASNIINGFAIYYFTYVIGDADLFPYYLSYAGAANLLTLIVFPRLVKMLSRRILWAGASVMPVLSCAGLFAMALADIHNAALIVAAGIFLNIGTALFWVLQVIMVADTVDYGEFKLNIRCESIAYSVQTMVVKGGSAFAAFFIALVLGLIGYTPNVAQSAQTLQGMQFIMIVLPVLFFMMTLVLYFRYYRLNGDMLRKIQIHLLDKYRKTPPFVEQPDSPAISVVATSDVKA

[3] = target: T2, MelBEc (MelB homologue from E. coli) (Escherichia coli, UniProt P02921); assay: as above; type: binding; settings: saturating melibiose; […] D^2G; D-NBM-C11; competitive
T2 sequence (P02921 2-473): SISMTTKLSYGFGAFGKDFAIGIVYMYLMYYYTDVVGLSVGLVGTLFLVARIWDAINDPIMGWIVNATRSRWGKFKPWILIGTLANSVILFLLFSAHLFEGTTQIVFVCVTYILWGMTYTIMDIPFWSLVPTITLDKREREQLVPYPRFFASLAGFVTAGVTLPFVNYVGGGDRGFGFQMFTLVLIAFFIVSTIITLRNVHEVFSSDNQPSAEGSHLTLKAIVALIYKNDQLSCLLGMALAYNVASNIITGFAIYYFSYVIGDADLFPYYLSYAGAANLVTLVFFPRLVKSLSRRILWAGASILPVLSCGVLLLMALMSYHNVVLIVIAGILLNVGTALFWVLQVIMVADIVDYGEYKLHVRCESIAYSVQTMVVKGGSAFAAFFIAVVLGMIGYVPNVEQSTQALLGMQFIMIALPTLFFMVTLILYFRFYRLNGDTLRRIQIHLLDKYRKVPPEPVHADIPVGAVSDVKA

[4] = target: T2, MelBEc (MelB homologue from E. coli); assay: Trp to dansyl FRET in detergent extract of membrane vesicles; settings: […] D^2G; D-NBM-C11; sugar binding site
[5] = target: T1, MelBSt (melibiose permease of Salmonella typhimurium); assay: as above; settings: […] D^2G; DDM or D-NBM-C11; sugar binding site

SMILES: CC(C)C[C@H](N)C(=O)O [[^3H]-Leu]
- scintillation proximity assay [1]: ability of the transporter to bind radiolabeled leucine [^3H-Leu]

SMILES: OC[C@H]1O[C@H](OC[C@H]2OC(O)[C@H](O)[C@@H](O)[C@@H]2O)[C@H](O)[C@@H](O)[C@H]1O (some centres unmarked) [melibiose]
- reversal of Trp to D^2G FRET in detergent extract of membrane vesicles [2]: MelBSt solubilized in DDM showed an effective melibiose reversal of FRET
- reversal of Trp to D^2G FRET in detergent extract of membrane vesicles [3]: both MelB proteins gave remarkable levels of galactoside binding in D-NBM-C11

SMILES: CN(C)c1cccc2c(S(=O)(=O)NCCS[C@@H]3O[C@H](CO)[C@H](O)[C@H](O)[C@H]3O)cccc12 [2′-(N-dansyl) aminoalkyl-1-thio-β-D-galactopyranoside]
- Trp to dansyl FRET in detergent extract of membrane vesicles [4]: both MelB proteins gave remarkable levels of galactoside binding in D-NBM-C11
- Trp to dansyl FRET in detergent extract of membrane vesicles [5]: FRET from tryptophan residues (Trp) to a fluorescent ligand
